≈ marks a conversion by molar mass, not a printed value.
System: Bacillus anthracis
Test: Antibacterial activity against Bacillus anthracis Sterne after 16 hrs by alamar blue broth microdilution technique
Type: functional

Row | Structure (SMILES) | MIC
1 | CCCC1c2ccccc2C=NN1C(=O)/C=C/c1cc(Cc2cnc(N)nc2N)cc(OC)c1OC (racemic) | 1 µg/mL (≈ 2.06 µM)
2 | COc1cc(Cc2cnc(N)nc2N)cc(/C=C/C(=O)N2N=Cc3ccccc3C2C(C)C)c1OC (racemic) | 1 µg/mL (≈ 2.06 µM)
3 | COc1cc(Cc2cnc(N)nc2N)cc(/C=C/C(=O)N2N=Cc3ccccc3C2CCC(F)(F)F)c1OC (racemic) | 1 µg/mL (≈ 1.85 µM)
4 | COc1cc(Cc2cnc(N)nc2N)cc(/C=C/C(=O)N2N=Cc3ccccc3C2CC(C)C)c1OC (racemic) | 1 µg/mL (≈ 2 µM)
5 | CCC(CC)C1c2ccccc2C=NN1C(=O)/C=C/c1cc(Cc2cnc(N)nc2N)cc(OC)c1OC (racemic) | 4 µg/mL (≈ 7.77 µM)
6 | COc1cc(Cc2cnc(N)nc2N)cc(/C=C/C(=O)N2N=Cc3ccccc3C2c2ccccc2C)c1OC (racemic) | 8 µg/mL (≈ 15 µM)
7 | COc1cc(Cc2cnc(N)nc2N)cc(/C=C/C(=O)N2N=Cc3ccccc3C2c2cc(C)cc(C)c2)c1OC (racemic) | 4 µg/mL (≈ 7.29 µM)
8 | COc1cc(Cc2cnc(N)nc2N)cc(/C=C/C(=O)N2N=Cc3ccccc3C2c2cccc(F)c2)c1OC (racemic) | 2 µg/mL (≈ 3.71 µM)
9 | COc1cc(Cc2cnc(N)nc2N)cc(/C=C/C(=O)N2N=Cc3ccccc3C2c2ccc(F)cc2)c1OC (racemic) | 1 µg/mL (≈ 1.86 µM)
10 | COc1cc(Cc2cnc(N)nc2N)cc(/C=C/C(=O)N2N=Cc3ccccc3C2Cc2ccccc2)c1OC (racemic) | 8 µg/mL (≈ 15 µM)
11 | COc1cc(Cc2cnc(N)nc2N)cc(/C=C/C(=O)N2N=Cc3ccccc3C2Cc2ccc(C)cc2)c1OC (racemic) | 4 µg/mL (≈ 7.29 µM)
12 | COc1ccc(CC2c3ccccc3C=NN2C(=O)/C=C/c2cc(Cc3cnc(N)nc3N)cc(OC)c2OC)cc1 (racemic) | 8 µg/mL (≈ 14.2 µM)
13 | COc1cc(Cc2cnc(N)nc2N)cc(/C=C/C(=O)N2N=Cc3ccccc3C2Cc2ccc(OC(F)(F)F)cc2)c1OC (racemic) | 4 µg/mL (≈ 6.47 µM)
14 | COc1cc(Cc2cnc(N)nc2N)cc(/C=C/C(=O)N2N=Cc3ccccc3C2c2ccc(C)cc2)c1OC (racemic) | 1 µg/mL (≈ 1.87 µM)
15 | COc1cc(Cc2cnc(N)nc2N)cc(/C=C/C(=O)N2N=Cc3ccccc3C2C2CCCCC2)c1OC (racemic) | 1 µg/mL (≈ 1.9 µM)
16 | COc1cc(Cc2cnc(N)nc2N)cc(/C=C/C(=O)N2N=Cc3ccccc3C2c2ccccc2)c1OC (racemic) | 0.375 µg/mL (≈ 0.72 µM)
